From the kinase profiling compilation of Christmann-Franck et al. (2016) come the findings set out here.

Molecules are shown by their SMILES.

For one test, the target named is GSK3B (human) (UniProt P49841). Briefly: radiometric filter-binding kinase assay.
The target in a further test is SRPK1 (human) (UniProt Q96SB4). Kind of test: radiometric filter-binding kinase assay.
SRPK1 (human), sequence (Q96SB4 whole entry, looked up): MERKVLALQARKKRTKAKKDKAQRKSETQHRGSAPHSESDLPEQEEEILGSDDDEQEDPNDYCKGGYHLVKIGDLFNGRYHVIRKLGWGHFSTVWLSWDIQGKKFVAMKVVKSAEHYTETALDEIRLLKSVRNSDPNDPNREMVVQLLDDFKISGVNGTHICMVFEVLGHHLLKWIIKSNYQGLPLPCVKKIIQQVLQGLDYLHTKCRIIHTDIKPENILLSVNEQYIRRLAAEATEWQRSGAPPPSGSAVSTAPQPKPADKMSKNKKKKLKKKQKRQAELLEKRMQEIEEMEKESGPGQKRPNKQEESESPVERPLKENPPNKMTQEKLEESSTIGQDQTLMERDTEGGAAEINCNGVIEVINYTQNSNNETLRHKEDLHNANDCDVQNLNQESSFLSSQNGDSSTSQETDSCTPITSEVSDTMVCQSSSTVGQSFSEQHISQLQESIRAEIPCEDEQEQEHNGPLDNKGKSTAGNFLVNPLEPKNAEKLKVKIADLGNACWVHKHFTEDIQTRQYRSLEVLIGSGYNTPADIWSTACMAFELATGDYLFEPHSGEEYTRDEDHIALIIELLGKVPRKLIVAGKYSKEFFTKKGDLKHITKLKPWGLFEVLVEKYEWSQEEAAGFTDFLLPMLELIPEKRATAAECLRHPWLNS

GSK3B (human), sequence (P49841 whole entry, looked up): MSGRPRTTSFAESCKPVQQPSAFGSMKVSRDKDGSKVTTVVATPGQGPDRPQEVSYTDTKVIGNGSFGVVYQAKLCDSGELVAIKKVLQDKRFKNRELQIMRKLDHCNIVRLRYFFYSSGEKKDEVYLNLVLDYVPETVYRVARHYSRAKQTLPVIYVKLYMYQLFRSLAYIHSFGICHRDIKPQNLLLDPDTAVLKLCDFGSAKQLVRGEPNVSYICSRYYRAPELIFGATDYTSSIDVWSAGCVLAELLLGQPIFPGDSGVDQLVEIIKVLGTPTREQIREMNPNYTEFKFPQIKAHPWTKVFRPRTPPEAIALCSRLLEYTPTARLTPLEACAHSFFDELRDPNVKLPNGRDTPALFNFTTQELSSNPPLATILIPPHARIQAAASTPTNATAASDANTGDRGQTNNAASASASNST

What is called residual activity is the signal under treatment as a percentage of the control signal. On to `CN1C(=O)[C@@H](Cc2c[nH]c3ccccc23)NC1=S`, for which the residual activity at GSK3B (human) (compound 1.0 µM) was 110%; on GSK3B (human) (compound 10.0 µM), 101%; at SRPK1 (human) (compound 1.0 µM), 93%; at SRPK1 (human) (compound 10.0 µM), 89%.

Consider `NC1(c2ccc(-c3nc4ccn5c(=O)[nH]nc5c4cc3-c3ccccc3)cc2)CCC1`, for which the residual activity on GSK3B (human) (compound 0.1 µM) worked out at 104%; on GSK3B (human) (compound 1.0 µM) it was 85%; at GSK3B (human) (compound 10.0 µM), 72%; at SRPK1 (human) (compound 0.1 µM), 107%; on SRPK1 (human) (compound 1.0 µM), 106%; on SRPK1 (human) (compound 10.0 µM), 116%.

Take `O=C(Nc1ccccc1-c1cn2c(CN3CCNCC3)csc2n1)c1cnc2ccccc2n1`: the residual activity is 78% on GSK3B (human) (compound 1.0 µM); 67% at GSK3B (human) (compound 10.0 µM); 94% on SRPK1 (human) (compound 0.1 µM); 92% on SRPK1 (human) (compound 1.0 µM); 86% on SRPK1 (human) (compound 10.0 µM).

Regarding `Cc1ccc(Sc2cnc(Nc3cccc(Br)n3)s2)cc1C(=O)N1CCN(C(=O)CN)CC1`, the residual activity came out at 46% at GSK3B (human) (compound 0.1 µM); 41% on GSK3B (human) (compound 1.0 µM); 37% on GSK3B (human) (compound 10.0 µM); 71% at SRPK1 (human) (compound 0.1 µM); 59% at SRPK1 (human) (compound 1.0 µM); 11% at SRPK1 (human) (compound 10.0 µM).

With `O=C(O)c1cc(N=Nc2ccc(S(=O)(=O)Nc3ccccn3)cc2)ccc1O`, the residual activity on GSK3B (human) (compound 1.0 µM) was determined as 101%; on GSK3B (human) (compound 10.0 µM), 93%; on SRPK1 (human) (compound 1.0 µM) it was 106%; on SRPK1 (human) (compound 10.0 µM) it was 104%.

With `Cn1c(=O)c2c(ncn2C)n(C)c1=O`, the residual activity on GSK3B (human) (compound 0.1 µM) was 102%; on GSK3B (human) (compound 1.0 µM), 101%; on SRPK1 (human) (compound 0.1 µM), 93%; on SRPK1 (human) (compound 1.0 µM) it was 97%.

For `NS(=O)(=O)OC[C@@H]1C[C@@H](n2ccc3c(N[C@H]4CCc5ccccc54)ncnc32)C[C@@H]1O`, the residual activity was determined as 93% on GSK3B (human) (compound 1.0 µM), 98% on GSK3B (human) (compound 10.0 µM), 92% at SRPK1 (human) (compound 1.0 µM) and 102% at SRPK1 (human) (compound 10.0 µM).

`O=c1c(O)c(-c2ccc(O)c(O)c2)oc2cc(O)c(O)c(O)c12`: the residual activity on GSK3B (human) (compound 1.0 µM) worked out at 94%; at GSK3B (human) (compound 10.0 µM) it was 19%; on SRPK1 (human) (compound 1.0 µM), 55%; on SRPK1 (human) (compound 10.0 µM), 3%.

Consider `COc1cc2ncn(-c3cc(OCc4ccccc4S(C)(=O)=O)c(C#N)s3)c2cc1OC`, for which the residual activity was found to be 90% on GSK3B (human) (compound 1.0 µM), 68% on GSK3B (human) (compound 10.0 µM), 93% on SRPK1 (human) (compound 1.0 µM) and 79% on SRPK1 (human) (compound 10.0 µM).

`C/C(=C1/C(=O)Nc2ccc(NC(N)=O)cc21)c1ccc[nH]1`: the residual activity on GSK3B (human) (compound 0.01 µM) turned out to be 92%; at GSK3B (human) (compound 0.1 µM), 49%; on SRPK1 (human) (compound 0.001 µM), 98%; at SRPK1 (human) (compound 0.01 µM) it was 96%; at SRPK1 (human) (compound 0.1 µM), 93%.

As for `CCc1cncnc1N1CCN(Cc2nc3cc(C(F)(F)F)ccc3[nH]2)CC1`, the residual activity on GSK3B (human) (compound 0.1 µM) amounted to 87%; on GSK3B (human) (compound 1.0 µM), 96%; at GSK3B (human) (compound 10.0 µM) it was 92%; on SRPK1 (human) (compound 0.1 µM), 108%; on SRPK1 (human) (compound 1.0 µM), 106%; on SRPK1 (human) (compound 10.0 µM), 101%.

Regarding `N#Cc1c(C2CCNCC2)cc(-c2c(O)cccc2OCC2CC2)nc1N`, the residual activity amounted to 80% on GSK3B (human) (compound 1.0 µM), 73% on GSK3B (human) (compound 10.0 µM), 92% at SRPK1 (human) (compound 1.0 µM) and 101% at SRPK1 (human) (compound 10.0 µM).

As to `Cc1cc(SCc2sc(-c3ccc(C(F)(F)F)cc3)nc2C)ccc1OCC(=O)O`, the residual activity on GSK3B (human) (compound 1.0 µM) was 87%; at GSK3B (human) (compound 10.0 µM) it was 83%; on SRPK1 (human) (compound 1.0 µM) it was 96%; on SRPK1 (human) (compound 10.0 µM), 87%.

Regarding `C[C@H]1CCCC(=O)CCC/C=C/c2cc(O)cc(O)c2C(=O)O1`, the residual activity at GSK3B (human) (compound 1.0 µM) came out at 47%; on GSK3B (human) (compound 10.0 µM) it was 11%; on SRPK1 (human) (compound 1.0 µM), 95%; on SRPK1 (human) (compound 10.0 µM), 89%.

Regarding `NC(=O)c1cc2c(-c3cccc(-c4ccccc4)c3)cnc(N)c2s1`, the residual activity came to 68% on GSK3B (human) (compound 0.1 µM); 16% at GSK3B (human) (compound 1.0 µM); 4% on GSK3B (human) (compound 10.0 µM); 87% at SRPK1 (human) (compound 0.1 µM); 67% at SRPK1 (human) (compound 1.0 µM); 17% on SRPK1 (human) (compound 10.0 µM).

Consider `Cc1cccc(-c2nn(C(=S)Nc3ccccc3)cc2-c2ccnc3ccccc23)n1`, for which the residual activity on GSK3B (human) (compound 0.1 µM) was 99%; on GSK3B (human) (compound 1.0 µM), 79%; on SRPK1 (human) (compound 0.1 µM), 101%; at SRPK1 (human) (compound 1.0 µM), 84%.

As to `Cc1ccc2c(c1)C(=O)[C@@]1(O)CCN(c3ccccc3)C1=N2`, the residual activity on GSK3B (human) (compound 10.0 µM) came to 88%; at GSK3B (human) (compound 100.0 µM), 66%; on SRPK1 (human) (compound 10.0 µM), 88%.

In the case of `NC(=O)Nc1ccc2c(c1)/C(=C/c1cc(-c3cccnc3)c[nH]1)C(=O)N2`, the residual activity on GSK3B (human) (compound 0.1 µM) was determined as 11%; at GSK3B (human) (compound 1.0 µM) it was 7%; at GSK3B (human) (compound 10.0 µM), 3%; on SRPK1 (human) (compound 0.1 µM) it was 90%; on SRPK1 (human) (compound 1.0 µM) it was 75%; on SRPK1 (human) (compound 10.0 µM), 36%.

`O=C1Nc2nc(-c3c(O)cccc3OCC3CC3)cc(C3CCCNC3)c2CO1` (stereo unspecified): the residual activity on GSK3B (human) (compound 1.0 µM) is 126%; on GSK3B (human) (compound 10.0 µM), 99%; at SRPK1 (human) (compound 1.0 µM), 98%; at SRPK1 (human) (compound 10.0 µM) it was 65%.

`FC(F)(F)c1ccc(-c2ccc(Oc3cncc4sc(-c5nn[nH]n5)cc34)cc2)cc1`: the residual activity at GSK3B (human) (compound 1.0 µM) was 63%; on GSK3B (human) (compound 10.0 µM), 14%; at SRPK1 (human) (compound 1.0 µM) it was 112%; on SRPK1 (human) (compound 10.0 µM), 105%.

In the case of `O=C1NC(=S)N[C@@H]1Cc1c[nH]c2ccccc12`, the residual activity on GSK3B (human) (compound 1.0 µM) stood at 99%; on GSK3B (human) (compound 10.0 µM), 92%; on SRPK1 (human) (compound 1.0 µM) it was 100%; at SRPK1 (human) (compound 10.0 µM), 98%.

On to `Oc1ccc2ccccc2c1SSc1c(O)ccc2ccccc12`, for which the residual activity at GSK3B (human) (compound 1.0 µM) came out at 68%; on GSK3B (human) (compound 5.0 µM), 30%; on GSK3B (human) (compound 10.0 µM), 106%; at SRPK1 (human) (compound 1.0 µM), 62%; on SRPK1 (human) (compound 5.0 µM) it was 47%; at SRPK1 (human) (compound 10.0 µM) it was 84%.

`NC(=O)c1ccc(-c2ccc(Oc3cncc4sc(-c5nn[nH]n5)cc34)cc2)cc1`: the residual activity came out at 38% on GSK3B (human) (compound 1.0 µM), 10% on GSK3B (human) (compound 10.0 µM), 99% on SRPK1 (human) (compound 1.0 µM) and 48% on SRPK1 (human) (compound 10.0 µM).

On to `O=C(O)c1ccc(-c2c[nH]c3ncc(-c4ccccc4)cc23)cc1C1CCCC1`, for which the residual activity at GSK3B (human) (compound 0.1 µM) is 94%; at GSK3B (human) (compound 1.0 µM), 78%; at GSK3B (human) (compound 10.0 µM), 23%; on SRPK1 (human) (compound 0.1 µM), 82%; at SRPK1 (human) (compound 1.0 µM) it was 104%; on SRPK1 (human) (compound 10.0 µM) it was 50%.
